From article doi:10.1101/2021.01.25.428124v1 (biorxiv, 2021) come the findings set out here.

SMILES strings stand for the structures.

This assay has as its target Methyl-coenzyme M reductase (MCR-I), Ni(I)-MCRred1 (Methanothermobacter marburgensis, UniProt P11558+P11560+P11562). Nature of the assay: biochemical. It counts as binding.

Chain of Methyl-coenzyme M reductase (MCR-I), Ni(I)-MCRred1 (P11558 2-550 limits assumed): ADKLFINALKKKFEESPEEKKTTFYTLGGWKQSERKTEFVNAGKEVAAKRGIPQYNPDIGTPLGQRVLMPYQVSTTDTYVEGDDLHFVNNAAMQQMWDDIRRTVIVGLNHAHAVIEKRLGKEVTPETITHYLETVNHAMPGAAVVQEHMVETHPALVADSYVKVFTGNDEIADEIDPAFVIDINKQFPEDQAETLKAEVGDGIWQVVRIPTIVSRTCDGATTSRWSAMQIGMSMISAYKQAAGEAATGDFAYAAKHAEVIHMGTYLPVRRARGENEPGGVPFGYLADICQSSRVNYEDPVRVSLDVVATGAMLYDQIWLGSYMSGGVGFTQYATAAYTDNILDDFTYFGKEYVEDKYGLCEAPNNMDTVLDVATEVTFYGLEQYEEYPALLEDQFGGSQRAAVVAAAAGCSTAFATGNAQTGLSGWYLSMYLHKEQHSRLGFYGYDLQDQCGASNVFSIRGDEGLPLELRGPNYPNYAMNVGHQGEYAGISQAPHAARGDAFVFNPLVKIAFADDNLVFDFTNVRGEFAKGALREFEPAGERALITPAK
Chain of Methyl-coenzyme M reductase (MCR-I), Ni(I)-MCRred1 (P11560 2-443 limits assumed): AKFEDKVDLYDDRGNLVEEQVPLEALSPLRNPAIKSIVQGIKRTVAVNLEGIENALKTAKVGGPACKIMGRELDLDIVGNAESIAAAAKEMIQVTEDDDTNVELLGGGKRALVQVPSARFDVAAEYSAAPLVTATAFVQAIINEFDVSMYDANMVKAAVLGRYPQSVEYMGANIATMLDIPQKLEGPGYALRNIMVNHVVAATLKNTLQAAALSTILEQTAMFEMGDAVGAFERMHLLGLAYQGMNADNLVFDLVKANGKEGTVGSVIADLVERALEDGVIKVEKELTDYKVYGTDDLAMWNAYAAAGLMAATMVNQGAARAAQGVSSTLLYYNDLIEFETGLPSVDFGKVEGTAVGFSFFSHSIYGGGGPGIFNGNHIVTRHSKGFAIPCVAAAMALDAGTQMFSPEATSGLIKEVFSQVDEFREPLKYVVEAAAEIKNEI
Chain of Methyl-coenzyme M reductase (MCR-I), Ni(I)-MCRred1 (P11562 2-249 limits assumed): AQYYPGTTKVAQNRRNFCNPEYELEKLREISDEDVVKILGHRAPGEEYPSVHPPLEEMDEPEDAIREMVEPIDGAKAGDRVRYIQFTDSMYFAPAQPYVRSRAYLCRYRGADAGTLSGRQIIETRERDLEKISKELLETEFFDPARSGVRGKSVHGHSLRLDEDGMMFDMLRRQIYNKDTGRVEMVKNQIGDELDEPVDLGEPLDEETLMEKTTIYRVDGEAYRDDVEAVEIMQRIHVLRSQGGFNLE

Broadly, the Kd is the equilibrium constant for the complex coming apart. In turn, `CCCCS(=O)(=O)O` [But-SO3] yielded a Kd of 3300 ± 600 µM.

`CSCCS(=O)(=O)O` [methyl-SCoM, S-methyl-2-mercaptoethane sulfonate]: the Kd stood at 27.5 ± 7.3 µM.

As for `C[C@@H](OP(=O)(O)O)[C@H](NC(=O)CCCCCCSSCCS(=O)(=O)O)C(=O)O` [CoMSSCoB], the equilibrium dissociation constant (Kd) was 57.4 ± 5.4 µM.

`C[C@@H](OP(=O)(O)O)[C@H](NC(=O)CCCCCSSCCS(=O)(=O)O)C(=O)O` [CoMSSCoB6] had a Kd of 105 ± 10.9 µM.
